Source: patent US20150328329A1, “LIGANDS THAT TARGET HCV-E2 BINDING SITES ON CD81 AND THERAPEUTIC METHODS USING THEM” (American University of Cairo, priority 2012, published 2015)

Tests used:
recombinant CD81-LEL = molecular target: T1, recombinant CD81-LEL (Homo sapiens, UniProt P60033); test: Dual polarization interferometry (DPI) binding of ligands to immobilized recombinant CD81-LEL; settings: for DPI Response (Radians), ligand added to CD81 protein: Table B and b111; for DPI Response (Radians), ligand added to CD81 protein / DPI Radians: ligand 500 μM in PBS, 2.5% DMSO; for DPI Radians: Table A
T1 construct: the large extracellular loop of CD81 (CD81-LEL); GST; His; Shoshana Levy Lab, Stanford (gift)
T1 sequence (P60033 113-201 limits assumed): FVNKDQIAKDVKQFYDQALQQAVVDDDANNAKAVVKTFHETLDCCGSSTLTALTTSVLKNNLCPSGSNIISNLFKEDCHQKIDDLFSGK
Procedure: DPI analyses were performed using an AnaLight 4D workstation (Farfield Group, Manchester UK). The recombinant CD81-LEL was immobilized onto a Thiol AnaChip using Sulfo-GMBS as a cross-linker in PBS running buffer. Non-specific sites were blocked with digested casein. TRIS was used to cap the cross-linker, blocking any additional amines from covalently binding to the cross-linker on the chip surface. Ligands were prepared as a 20 mM stock solutions in DMSO. Each ligand was diluted to a final concentration of 500 μM in PBS just prior to injection (final DMSO concentration was 2.5%). PBS and DMSO mixed in the same ratio were used as a blank. Data collection and analysis were performed using the AnaLight Resolver.
Six of the more interesting ligand candidates being considered for use in creating a ligand conjugate (three calculated to bind to Site 1 and three calculated to bind to Site 2) were further tested to confirm binding using a second experimental technique, dual polarization interferometry. The results, shown in FIG. 6, confirmed that all six ligands bound to the protein. The relative rank in strength of binding of the Site 1 and 2 ligands, as determined by DPI, were also similar to the ranking obtained by SPR or calculated by AutoDock for the majority of the ligands. […] One reason for this observed difference in the DPI response may relate to conformational changes in the protein that occur when the small molecules bind. The change in radians measured using DPI when a ligand binds to a protein is known to result from a combination of two effects: 1) the resulting increase in mass/volume when the ligand binds to the protein on the surface of the chip and 2) a conformational change in the protein induced by the binding of the ligand. Molecules binding in the deeper cavity would be expected to have more and stronger contacts with the protein than ligands sitting exposed to solvent in shallow cavities or surface binding sites. […]

[1] = molecular target: T2, native CD81 on Raji cells (Homo sapiens, UniProt P60033); test: Competition assay: inhibition of FITC-labeled JS-81 anti-CD81 antibody binding to native CD81 on live Raji cells (flow cytometry); format: cell-based
T2 construct: endogenous in cells; host or cells: Raji (human B cell line)
T2 sequence (P60033 1-236): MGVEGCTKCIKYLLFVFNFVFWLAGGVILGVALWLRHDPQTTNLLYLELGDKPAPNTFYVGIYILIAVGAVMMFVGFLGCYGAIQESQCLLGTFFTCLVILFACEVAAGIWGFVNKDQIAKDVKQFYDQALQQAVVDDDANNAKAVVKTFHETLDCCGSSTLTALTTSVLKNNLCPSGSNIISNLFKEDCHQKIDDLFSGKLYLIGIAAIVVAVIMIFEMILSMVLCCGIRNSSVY
Description: A subset of these ligands and some of those listed in the patent have been tested to identify those ligands that bind to the correct region of the CD81 protein and for binding to native CD81 on living cells (a Raji cell line). This assay tests three concentrations of the ligand to determine if the ligand is capable of inhibiting the binding of an antibody called JS-81. This antibody is known to bind to the region of the CD81 protein we have targeted. If the ligand decreases JS-81 binding as you increase the concentration of the ligand, it is 1) binding to native CD81 on the Raji cells and 2) it is binding to the correct region of the protein.
For antibody neutralization assay Raji cells were used, a human B cell line that expressed high amounts of CD81 on the surface (data not shown). Cells were grown in RPMI medium (10% FCS, 1% penicillin/streptomycin, 1% L-glutamine, 1% non-essential amino acids, 1% sodium pyruvate, pH 7.4, at 37° C. with 5% CO2). 2×10^5 cells were incubated with or without different concentrations (50 μM, 100 μM, 400 μM and 1 mM) of indicated inhibitor for 20 min at room temperature, subsequently 1 ul (16 ng/μl) of FITC-labeled anti CD81 antibody (BD Pharmingen, 551108) was added to the cells and incubated for 20 min (antibody titration was performed to obtain a working dilution range, data not shown). Cells were washed and analyzed by flow cytometry using fluorescence-activated cell sorting (FACS) (BD FACSCalibur, software: Cell Quest Pro). Mean Fluorescence Intensity MFI was calculated using Flowjo software (TreesStar, www.flowjo.com).

HCV E2 binding to CD81 = molecular target: T3, HCV E2 binding to CD81 (Homo sapiens, UniProt P60033); test: DPI assay of ligands blocking HCV E2 protein binding to CD81; settings: Table D; E2 Protein alone gives 4.1402; reduced response = blocking
T3 sequence (P60033 113-201 limits assumed): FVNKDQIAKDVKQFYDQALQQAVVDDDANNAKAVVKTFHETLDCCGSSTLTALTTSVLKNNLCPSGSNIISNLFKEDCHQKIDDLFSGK
Procedure: A subset of the ligands identified to bind to CD81 have been tested using Dual Polarization Interferometry (DPI) to determine if the ligands themselves are effective in blocking E2 binding to CD81. The experiments are conducted by first immobilizing one of the proteins (HCV E2 or CD81) on the chip used to perform the assay. The other protein is then introduced to the chip and the amount of binding is measured. This protein is then washed off and the protein and one of the ligands are then introduced to the chip. If the ligand blocks/interferes with the binding of the two proteins, the DPI response (measured in Radians) is reduced compared to when the protein is added alone. After the measurement is made, the protein and ligand are washed off and the next combination of the protein and a different ligand are added to the chip and the DPI response is measured. Similar experiments can be performed in which the protein is mixed with two or more ligands to see if they have a greater effect when combined.
Experiments have been conducted with either CD81 or HCV E2 immobilized on the chip. Six ligands have been tested to date.

[2] = molecular target: T4, recombinant CD81-LEL (GST tag) (Homo sapiens, UniProt P60033); test: Surface plasmon resonance (Biacore T200) binding of ligands to immobilized recombinant CD81-LEL; settings: Table A; ligand 600 μM in PBS-0.05% Tween-80; CD81-LEL-GST on CM5 chip
T4 construct: the large extracellular loop of CD81 (CD81-LEL); gift of Dr. Shoshana Levy, Stanford University
T4 sequence (P60033 113-201 limits assumed): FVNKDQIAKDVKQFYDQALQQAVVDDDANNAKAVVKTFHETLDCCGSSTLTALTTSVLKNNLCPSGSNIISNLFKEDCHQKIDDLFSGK
Procedure: SPR analysis was performed using a Biacore T200 workstation (GE Healthcare, NJ, USA). A recombinant form of the CD81-LEL protein with a GST tag (generously provided by Dr. Shoshana Levy, Stanford University) was used to confirm, using an established experimental technique, the binding of several ligands to the protein. Briefly, 10 μM CD81-LEL-GST diluted into 10 mM Na-Acetate buffer pH 4.5 was immobilized for 15 min at a flow speed of 5 μl/min onto a CM5 sensor chip using amine-coupling (EDC-NHS). Approximately 20,000 RU of protein were immobilized on the chip. The ligands were prepared as 600 μM solutions in PBS-0.05% Tween-80 (the running buffer) and they were introduced to the protein using a pre-programmed 3 minute association and 1 minute dissociation interval.
The binding affinity of the most tightly bound ligand in the group selected for ligand conjugate design (Ligand 1) was estimated using data collected from a series of SPR binding experiments conducted at different ligand concentrations. To obtain the kinetic and affinity data needed to estimate the Kd, the original ligand was diluted serially with running buffer to produce seven different ligand concentrations: 1024 μM, […], 256 μM, 128 μM, 64 μM, 32 μM and 0 μM. Data were fitted using a monovalent binding model.
A total of 36 ligands were tested experimentally using surface Plasmon resonance (on a Biacore T200 instrument) to identify which of the molecules calculated to bind to Sites 1 and 2 on CD81 actually bind to a recombinant form of the protein (CD81-LEL). Twenty-six of the molecules provided a positive change in response units (RU) upon introduction to a chip containing the immobilized protein (Table A), indicating the ligands bound to the protein. The measured responses for the ligands that bound varied from 2.3 to 78.4 RU. Those ligands providing the largest responses tended to be molecules that were calculated to bind more deeply inside cavities in Site 1 (ligands 30930, 98026, 7436, 5069), Site 2 (ligands 127947, 38743) or Site 4 (ligands 78623, 16631).
Experimental analysis of ligand binding to recombinant CD81 LEL. Forty ligands calculated by AutoDock to bind to sites 1 and 2 on CD81-LEL were tested experimentally using surface Plasmon resonance as described in the Materials and Methods section. Ligand code numbers are those assigned by the National Cancer Institute. […] Because the binding experiments were performed by passing the same concentration of each ligand sequentially across the same protein coated chip using both techniques, the magnitude of the responses can be used to provide an approximate ranking of binding strength.

Row | Structure (SMILES) | DPI Response (Radians), ligand added to CD81 protein (recombinant CD81-LEL) [Radians] | DPI Radians (recombinant CD81-LEL) [Radians] | Inhibition of JS-81 Binding (%) ([1]; 50 μM ligand) | Inhibition of JS-81 Binding (%) ([1]; 100 μM ligand) | Inhibition of JS-81 Binding (%) ([1]; 400 μM ligand) | SPR Response Units [2] [RU] | further results
1 | O=C(OCc1ccccc1)c1ccccc1O [Benzyl salicylate, reference compound] | 0.5818 | – | – | – | – | – | DPI Response (Radians), ligand added to CD81 protein (recombinant CD81-LEL; listed as benzyl salicylate): 0.58 Radians
2 | O=C(O)Cn1cnc2c(=S)nc[nH]c21 [Ligand 36914] | – | 0.1448 | – | – | – | – | –
3 | O=C(O)c1cc2cc(OCc3ccccc3)ccc2[nH]1 [Ligand 30930] | – | – | 0 | 0 | 14 | 67.7 | DPI Binding Response (Radians), molecule added alone to CD81 (recombinant CD81-LEL; Table D, single molecule added to CD81): 1.102 Radians; DPI Binding Response (Radians), E2 Protein added to CD81 together with ligand(s) (HCV E2 binding to CD81): 2.5262 Radians
4 | O=C(O)CCC1(c2ccccc2)NC(=O)NC1=O (centres unmarked) [Ligand 38743] | 0.8593 | – | – | – | – | 30.6 | –
5 | O=C(O)c1ccccc1C(=O)Nc1ccccc1[N+](=O)[O-] [Ligand 41066] | – | 0.2700 | – | – | – | – | –
6 | COc1cc(-c2ccc(Nc3ccccc3C(=O)O)c(OC)c2)ccc1Nc1ccccc1C(=O)O [Ligand 73735] | – | – | 0 | 0 | 24 | 1957.8 | –
7 | CC(C)(C)c1ccc(NS(=O)(=O)c2ccc(N)cc2)cc1 [Ligand 7436] | – | – | 0 | 12 | 11 | 78.4 | –

Further lines, with some results ahead:

Row | DPI Response (Radians), ligand added to CD81 protein (recombinant CD81-LEL) [Radians] | DPI Radians (recombinant CD81-LEL) [Radians] | Inhibition of JS-81 Binding (%) ([1]; 50 μM ligand) | Inhibition of JS-81 Binding (%) ([1]; 100 μM ligand) | Inhibition of JS-81 Binding (%) ([1]; 400 μM ligand) | SPR Response Units [2] [RU] | Structure (SMILES) | further results
8 | – | 0.4360 | – | – | – | – | Cn1c(=O)c2[nH]c(CNc3ccc(C(=O)O)cc3)nc2n(C)c1=O [Ligand 81750] | –
9 | 0.7494 | 0.7494 | – | – | – | – | NC(=S)Nc1cccc(Cl)c1 [Ligand 164965] | –
10 | 1.1918 | – | 0 | 0 | 21 | 50 | CC(C)=CCC1=C(OCC(=O)O)C(=O)c2ccccc2C1=O [Ligand 98026] | –
11 | – | – | – | – | – | 54.5 | NC(=O)CCC(C(=O)O)N1C(=O)c2ccc(O)cc2C1=O (centres unmarked) [Ligand 78623] | –
